Measurements reported in article PMC4914680 (Antimicrobial Agents and Chemotherapy, 2016).
Where two headings read alike, the source gives them in different places.

Assays:
[1] = tested on: HIV-1 NL4-3 ΔV370 variant (NLRepRlucP373S/Δ370); format: cell-based
[2] = tested on: subtype B gag/pr recombinant viruses; assay: Multiple-cycle Gag/Pr phenotyping assay; format: cell-based, HIV-1
HIV-1 IIIB = assay: Multiple-cycle assay, laboratory strains; format: cell-based; settings: Human immunodeficiency virus 1, CXCR4, MT-2
HIV-1 Bal = assay: Multiple-cycle assay, laboratory strains; format: cell-based; settings: Human immunodeficiency virus 1, CCR5, PM1
[3] = tested on: HIV-1 subtype D clinical isolates; assay: Drug susceptibility assay using clinical isolates in PBMCs; settings: Human immunodeficiency virus 1, PBMC
[4] = tested on: HIV-LAI envelope-pseudotyped RepRlucP373SΔenv virus; assay: Two-stage single-cycle pseudotype assay (HIV-1 entry assay); format: cell-based
[5] = tested on: HIV-1 group O clinical isolates; assay: Drug susceptibility assay using clinical isolates in PBMCs; settings: Human immunodeficiency virus 1, PBMC
HIV-1 gp160 = biological target: T1, HIV-1 gp160 (Human immunodeficiency virus type 1 group M subtype B, UniProt P04578); assay: HIV-1 cell fusion assay; format: cell-based
T1 construct: expressed in transfected cells; host or cells: NL-TOE donor cells (target cells: HeLa C14)

[6] = tested on: viruses from subtypes A, C, D, F, and G; assay: Drug susceptibility assay using clinical isolates in PBMCs; settings: Human immunodeficiency virus 1, PBMC, read-out: EC50s (range)
[7] = tested on: V370M virus (recombinant virus with gag/pr genes from a clinical isolate); assay: microbe, parasite or virus in culture; format: cell-based, HIV-1; settings: Human immunodeficiency virus 1, MT2, read-out: EC50 (SD)
[8] = tested on: subtype C gag/pr recombinant viruses; assay: Multiple-cycle Gag/Pr phenotyping assay; format: cell-based, HIV-1
HIV-1 JRFL = assay: Multiple-cycle assay, laboratory strains; format: cell-based; settings: Human immunodeficiency virus 1, CCR5, PM1
HIV-1 protease = HIV-1 protease (Human immunodeficiency virus type 1 group M subtype B, UniProt P03366); assay: HIV-1 protease assay; format: biochemical
[9] = tested on: HIV-1 subtype F clinical isolate; assay: Drug susceptibility assay using clinical isolates in PBMCs; settings: Human immunodeficiency virus 1, PBMC
[10] = tested on: HIV-1 subtype CRF01_AE clinical isolates; assay: as above; settings: Human immunodeficiency virus 1, PBMC
HIV-1 Gag (WT LAI VLPs) = HIV-1 Gag (WT LAI VLPs) (Human immunodeficiency virus type 1 group M subtype B, UniProt P03348); assay: [3H]BMS-955176-Gag binding (SPA)
HIV-1 NL4-3 [11] = assay: Time-of-addition study, NL4-3-infected B6 cells; format: cell-based; settings: single cycle, 24 h postinfection
HIV-1 HXB2 = assay: Multiple-cycle assay, laboratory strains; format: cell-based; settings: Human immunodeficiency virus 1; HXB2, CXCR4, MT-2
HIV-1 NL4-3 [12] = assay: Multiple-cycle assay, laboratory strains; format: cell-based; settings: Human immunodeficiency virus 1, NL43; NL4-3, CXCR4, MT-2
[13] = initial / phase 2a clinical studies; cited from earlier work
HIV-1 LAI = assay: Multiple-cycle assay, laboratory strains; format: cell-based; settings: Human immunodeficiency virus 1
HIV-2 ROD = assay: Multiple-cycle assay, laboratory strains; format: cell-based; settings: Human immunodeficiency virus 2, MT-2
[14] = tested on: HIV-1 subtype B clinical isolates; assay: Drug susceptibility assay using clinical isolates in PBMCs
[15] = tested on: HIV-1 group N clinical isolate; assay: as above; settings: Human immunodeficiency virus 1, PBMC
HIV-2 CBL-23 = assay: Multiple-cycle assay, laboratory strains; format: cell-based; settings: HIV-2 CBL-23, MT-2
[16] = human, serum
HIV-2 CBL-20 = assay: Multiple-cycle assay, laboratory strains; format: cell-based; settings: HIV-2 CBL-20, MT-2
HIV-1 RF = assay: Multiple-cycle assay, laboratory strains; format: cell-based; settings: Human immunodeficiency virus 1
[17] = Human immunodeficiency virus 2, read-out: EC50

SMILES: C=C(C)[C@@H]1CC[C@]2(NCCN3CCS(=O)(=O)CC3)CC[C@]3(C)[C@H](CC[C@@H]4[C@@]5(C)CC=C(c6ccc(C(=O)O)cc6)C(C)(C)[C@@H]5CC[C@]43C)[C@@H]12 [BMS-955176]
- EC50 ([1]; Human immunodeficiency virus 1, NL43, MT2): 13 nM
- EC50 ([1]; Human immunodeficiency virus 1, NL43, MT2, read-out: EC50 (SD)): 13 nM
- EC50 ([2]; Human immunodeficiency virus 1, read-out: EC50 (mean), full library, None (WT), n=51): 3 nM
- EC50 ([2]; Human immunodeficiency virus 1, read-out: EC50 (mean), full library, T371A/Q/N/S/TT, n=6): 4 nM
- EC50 ([2]; Human immunodeficiency virus 1, read-out: EC50 (mean), full library, V362I, n=5): 5.3 nM
- EC50 ([2]; Human immunodeficiency virus 1, read-out: EC50 (mean), full library, V370A + ΔT371, n=4): 12 nM
- EC50 ([2]; Human immunodeficiency virus 1, read-out: EC50 (mean), full library, V370A, n=7): 2 nM
- EC50 ([2]; Human immunodeficiency virus 1, read-out: EC50 (mean), full library, V370I/L/T, n=4): 3 nM
- EC50 ([2]; Human immunodeficiency virus 1, read-out: EC50 (mean), full library, V370 M, n=9): 7 nM
- EC50 ([2]; Human immunodeficiency virus 1, read-out: EC50 range, V362I-containing viruses, n=5): 2 to 9.4 nM
- EC50 ([2]; Human immunodeficiency virus 1, read-out: EC50 range, all subtype B, n=87): 0.7 to 22 nM
- EC50 ([2]; Human immunodeficiency virus 1, read-out: mean EC50, all subtype B, n=87): 3.9 ± 3.4 nM
- EC50 ([2]; Human immunodeficiency virus 1, read-out: median EC50, V362I-containing viruses, n=5): 5.7 nM
- EC50 ([2]; Human immunodeficiency virus 1, read-out: median EC50, WT subtype B (n=51)): 2.5 nM
- EC50 ([2]; Human immunodeficiency virus 1, read-out: median EC50, all subtype B, n=87): 2.8 nM
- EC50 ([2]; read-out: EC50 (mean), full library, V362I, n=5): 5 nM
- EC50 (HIV-1 IIIB): 2.8 ± 0.3 nM
- EC50 (HIV-1 Bal): 0.7 ± 0.2 nM
- EC50 ([3]; read-out: Median EC50): 6 nM
- EC50 ([3]; read-out: Range EC50): 1 to 21 nM
- inhibition of luciferase, compound added at stage 1 (virus production) [4]: inhibiting luciferase production only when added in the first stage
- inhibition of luciferase, compound added at stage 2 (infection) [4]: inhibiting luciferase production only when added in the first stage
- EC50 ([5]; read-out: Mean EC50 ± SD, PBMCs, group O, 5 isolates): 170 ± 240 nM
- EC50 ([5]; read-out: Median EC50, PBMCs, group O, 5 isolates): 30 nM
- EC50 ([5]; read-out: Range EC50, PBMCs, group O, 5 isolates): 1 to 552 nM
- EC50 (HIV-1 gp160): > 2000 nM
- EC50 [6]: 5.9 to 87 nM
- EC50 [7]: 10 nM
- EC50 ([8]; Human immunodeficiency virus 1, read-out: EC50 range): 2.1 to 45 nM
- EC50 ([8]; Human immunodeficiency virus 1, read-out: mean EC50): 10.9 ± 9.1 nM
- EC50 ([8]; Human immunodeficiency virus 1, read-out: median EC50): 8.8 nM
- EC50 (HIV-1 JRFL): 2.5 ± 0.8 nM
- IC50 (HIV-1 protease): > 10000 nM
- EC50 ([9]; read-out: Mean EC50): 5.9 nM
- EC50 ([9]; read-out: Median EC50): 6 nM
- EC50 ([9]; read-out: Range EC50): 6 nM
- EC50 ([10]; read-out: Mean EC50 ± SD, PBMCs, AE, 7 isolates): 77 ± 46 nM
- EC50 ([10]; read-out: Range EC50, PBMCs, AE, 7 isolates): 10 to 139 nM
- Ki (HIV-1 Gag (WT LAI VLPs)): 5.6 nM
- Kd (HIV-1 Gag (WT LAI VLPs); Kd values, range of 5 experiments): 2.3 to 6 nM
- Kd (HIV-1 Gag (WT LAI VLPs); Kd, saturation binding of [3H]BMS-955176 to LAI VLPs): 5.5 nM
- effect on luciferase signal by time of addition (HIV-1 NL4-3 [11]): did not inhibit luciferase expression when added any time during infection
- EC50 (HIV-1 HXB2): 11 ± 2 nM
- EC50 (HIV-1 NL4-3 [12]): 4.7 ± 2.3 nM
- clinical safety and tolerability [13]: safe and well tolerated
- EC50 (HIV-1 LAI): 2.6 ± 0.3 nM
- EC50 (HIV-2 ROD): 15 ± 1.2 nM
- EC50 ([14]; Human immunodeficiency virus 1, PBMC, read-out: Mean EC50 ± SD, PBMCs, B (96% of Gag diversity), 22 isolates): 24 ± 24 nM
- EC50 ([14]; Human immunodeficiency virus 1, PBMC, read-out: Mean EC50 ± SD, PBMCs, B (all), 26 isolates): 67 ± 172 nM
- EC50 ([14]; Human immunodeficiency virus 1, PBMC, read-out: Median EC50, PBMCs, B (96% of Gag diversity), 22 isolates): 17 nM
- EC50 ([14]; Human immunodeficiency virus 1, PBMC, read-out: Median EC50, PBMCs, B (all), 26 isolates): 21 nM
- EC50 ([14]; Human immunodeficiency virus 1, PBMC, read-out: Range EC50, PBMCs, B (96% of Gag diversity), 22 isolates): 1 to 110 nM
- EC50 ([14]; Human immunodeficiency virus 1, PBMC, read-out: Range EC50, PBMCs, B (all), 26 isolates): 1 to 858 nM
- EC50 ([14]; Human immunodeficiency virus 1, PBMC, read-out: mean EC50, PBMCs, three less susceptible subtype B variants with Gag V370A/ΔT371): 123 ± 162 nM
- EC50 ([14]; PBMC): 860 nM
- EC50 ([15]; read-out: Mean EC50): 7.2 nM
- EC50 ([15]; read-out: Median EC50): 7 nM
- EC50 ([15]; read-out: Range EC50): 7 nM
- EC50 (HIV-2 CBL-23): completely resistant
- EC50 (HIV-2 CBL-23; [17]): > 1200 nM
- fraction unbound [16]: 0.18
- EC50 (HIV-2 CBL-20): completely resistant
- EC50 (HIV-2 CBL-20; [17]): > 1200 nM
- EC50 (HIV-1 RF): 7.7 ± 1.4 nM
